One experiment concerns MCF-10A cells. The experiment can be described thus: Cytotoxicity against MCF-10A cells, MTT assay (five doses). It is filed as cell-based. To be noted: Homo sapiens, MCF-10A normal cells, five dose concentrations, n = 3, read-out: MCF-10A IC50 ± SD.
In a further experiment the test system is MCF-7 cells. The experiment can be described thus: Cytotoxicity against MCF-7 cells, MTT assay (single dose and five doses). To be noted: for Average OD / OD1 / OD2 / OD3: MCF-7, single dose 100 μg/mL, MTT optical density; for Average OD: average of triplicates; for OD1: replicate 1; for OD2: replicate 2; for OD3: replicate 3.
A further experiment has as its target T1, VEGFR-2 (Homo sapiens, UniProt P35968).
T1 construct: purchased BPS Bioscience 40325
The experiment can be described thus: VEGFR-2 kinase inhibition, luminescent VEGFR2 (KDR) kinase assay kit (BPS Bioscience # 40325). It is filed as biochemical. To be noted: for VEGFR-2 enzyme inhibition LogIC50 (Fig. 3): unit not given. The procedure: Functionally, this pathway operates in autocrine and intracrine modes to promote cell proliferation, survival, and resistance to apoptosis through downstream effectors such as PI3K/AKT and p38 MAPK.
SIT, FLU and TNZ were tested using the five dose sigmoidal curves to determine the IC50 values. […] At the end of these experiment, anti-tumor potentiality was recorded using tumor weight (mg), tumor volume (mm^3), and the tumor inhibition ratio (TIR%). Hematological parameters of Hemoglobin (Hb, g/dL), RBC’s count (10^6/μL), and WBC’s count (10^3/μL) were investigated, along with histopathological and immunohistochemical staining of the VEGR2 protein.
Compounds Itraconazole. […] [12].

Setting [1] is: Homo sapiens, MCF7, read-out: Average viability%.
The mark [2] stands for this setting: Homo sapiens, MCF7, read-out: MCF-7 IC50 ± SD, MCF-7, five dose concentrations, MTT, n = 3.
[3] abbreviates: Homo sapiens, MCF7, read-out: Viability (%) 1.
Where [4] appears, read: Homo sapiens, MCF7, read-out: Viability (%) 2.
Setting [5] is: Homo sapiens, MCF7, read-out: Viability (%) 3.
[6] abbreviates: enzyme inhibition, dose-response, non-linear regression, read-out: VEGFR-2 inhibition IC50.

Structures are written as SMILES. Read-outs that look alike come from different tables or passages of the source.

T1 sequence (P35968 20-1356): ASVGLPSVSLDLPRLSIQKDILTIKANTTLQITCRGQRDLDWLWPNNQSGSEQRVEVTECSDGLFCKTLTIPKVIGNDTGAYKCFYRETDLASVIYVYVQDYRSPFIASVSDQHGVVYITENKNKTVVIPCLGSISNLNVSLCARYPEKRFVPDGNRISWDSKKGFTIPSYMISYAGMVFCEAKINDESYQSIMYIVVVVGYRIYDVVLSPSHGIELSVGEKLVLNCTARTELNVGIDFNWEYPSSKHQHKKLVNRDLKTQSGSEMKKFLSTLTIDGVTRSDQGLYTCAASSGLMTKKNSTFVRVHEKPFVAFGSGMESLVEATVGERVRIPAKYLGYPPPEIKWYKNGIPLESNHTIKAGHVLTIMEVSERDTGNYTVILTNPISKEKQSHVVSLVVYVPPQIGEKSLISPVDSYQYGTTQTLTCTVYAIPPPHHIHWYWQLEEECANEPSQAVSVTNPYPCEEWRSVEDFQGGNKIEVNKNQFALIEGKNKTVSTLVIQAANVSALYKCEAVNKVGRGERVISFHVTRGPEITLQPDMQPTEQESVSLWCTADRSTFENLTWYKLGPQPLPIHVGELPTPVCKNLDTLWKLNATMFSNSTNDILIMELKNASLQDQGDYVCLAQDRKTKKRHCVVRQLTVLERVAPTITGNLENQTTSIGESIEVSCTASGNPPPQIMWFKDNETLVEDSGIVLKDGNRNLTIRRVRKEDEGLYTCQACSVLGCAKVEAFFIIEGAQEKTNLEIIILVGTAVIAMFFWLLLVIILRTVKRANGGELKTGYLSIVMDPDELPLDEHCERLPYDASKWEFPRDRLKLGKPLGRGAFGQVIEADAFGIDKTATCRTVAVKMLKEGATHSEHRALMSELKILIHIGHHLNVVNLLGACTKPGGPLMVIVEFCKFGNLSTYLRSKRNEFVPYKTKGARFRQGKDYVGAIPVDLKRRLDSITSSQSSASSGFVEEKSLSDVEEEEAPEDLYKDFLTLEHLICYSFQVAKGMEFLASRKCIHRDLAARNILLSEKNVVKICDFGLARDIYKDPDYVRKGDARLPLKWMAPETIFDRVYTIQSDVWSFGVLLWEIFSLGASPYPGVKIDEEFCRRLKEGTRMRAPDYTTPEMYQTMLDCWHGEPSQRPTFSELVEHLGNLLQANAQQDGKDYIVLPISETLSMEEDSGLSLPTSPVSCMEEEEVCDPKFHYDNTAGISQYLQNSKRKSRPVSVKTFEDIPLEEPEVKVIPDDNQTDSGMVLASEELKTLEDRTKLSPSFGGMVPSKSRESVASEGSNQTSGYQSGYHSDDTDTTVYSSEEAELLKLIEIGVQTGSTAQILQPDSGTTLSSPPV

On to `COc1cccc2c1C(=O)c1c(O)c3c(c(O)c1C2=O)C[C@@](O)(C(=O)CO)C[C@@H]3O[C@H]1C[C@H](N)[C@H](O)[C@H](C)O1` [DOX, doxorubicin], for which the IC50 in the experiment on MCF-10A cells worked out at 38.9 ± 1.1 µM; with MCF-7 cells (setting [2]), 3.91 ± 0.6 µM. Besides, the viability at 100 µg/mL in the experiment on MCF-7 cells (setting [1]) amounted to 46.2%; in the experiment with MCF-7 cells (setting [3]), 41.9%; in the experiment with MCF-7 cells (setting [4]) it was 42.9%; in the experiment on MCF-7 cells (setting [5]) it was 53.6%. In addition, the “Average OD” value with MCF-7 cells is on record as 1.49. For the same compound, the OD1 in the experiment on MCF-7 cells worked out at 1.35. For the same compound, the OD2 with MCF-7 cells is listed as 1.38. Besides, the OD3 in the experiment with MCF-7 cells is 1.73.
On to `O=C1CN(/N=C/c2ccc(-c3ccc([N+](=O)[O-])cc3)o2)C(O)=N1` [Dantrolene, dantrolene], for which the viability at 100 µg/mL came out at 70% with MCF-7 cells (setting [1]), 72% in the experiment on MCF-7 cells (setting [3]), 65.7% in the experiment with MCF-7 cells (setting [4]) and 72.5% with MCF-7 cells (setting [5]). Also, the “Average OD” value in the experiment with MCF-7 cells came out at 2.26. In addition, in the experiment with MCF-7 cells, the OD1 is recorded as 2.32. Also, in the experiment on MCF-7 cells, the OD2 came to 2.12. The OD3 with MCF-7 cells is recorded as 2.34.
As for `OC(Cn1cncn1)(Cn1cncn1)c1ccc(F)cc1F` [Fluconazole, fluconazole], the “VEGFR-2 enzyme inhibition LogIC50 (Fig. 3)” value on VEGFR-2 (dose-response curve fit) turned out to be 2.535. The IC50 at VEGFR-2 (setting [6]) stood at 343000 nM; in the experiment on MCF-10A cells, 32.3 ± 1.77 µM; in the experiment on MCF-7 cells (setting [2]), 260 µM; in the experiment on MCF-7 cells (read-out: MCF-7 IC50 ± SD, MCF-7, five dose concentrations, MTT, n = 3, listed as FLU), 261 ± 6.8 µM. The viability at 100 µg/mL in the experiment on MCF-7 cells (setting [1]) worked out at 64.3%; in the experiment on MCF-7 cells (setting [3]) it was 62.7%; in the experiment with MCF-7 cells (setting [4]) it was 67.3%; with MCF-7 cells (setting [5]), 62.9%. In the experiment with MCF-7 cells, the “Average OD” value is 2.07. In the experiment on MCF-7 cells, this compound gave an OD1 of 2.02. The OD2 with MCF-7 cells was determined as 2.17. In addition, in the experiment with MCF-7 cells, the OD3 is on record as 2.03.
On to `CCCCc1nc(Cl)c(CO)n1Cc1ccc(-c2ccccc2-c2nn[nH]n2)cc1` [Losartan, losartan], for which the viability at 100 µg/mL with MCF-7 cells (setting [1]) was found to be 71%. For the same compound, the viability at 100 µg/mL in the experiment on MCF-7 cells (setting [3]) amounted to 71.4%. Moreover, in the experiment with MCF-7 cells (setting [4]), the viability at 100 µg/mL turned out to be 69.1%. The viability at 100 µg/mL in the experiment on MCF-7 cells (setting [5]) is 72.3%. In addition, in the experiment with MCF-7 cells, the “Average OD” value is given as 2.29, the OD1 came to 2.30, the OD2 worked out at 2.23 and the OD3 is 2.33.
On to `Clc1ccc(COC(Cn2ccnc2)c2ccc(Cl)cc2Cl)c(Cl)c1` (centres unmarked) [Miconazole, miconazole], for which the viability at 100 µg/mL in the experiment with MCF-7 cells (setting [1]) was determined as 76%. The viability at 100 µg/mL with MCF-7 cells (setting [3]) worked out at 77%. In addition, the viability at 100 µg/mL in the experiment with MCF-7 cells (setting [4]) was found to be 76%. Besides, the viability at 100 µg/mL with MCF-7 cells (setting [5]) is 75%. Moreover, in the experiment on MCF-7 cells, the “Average OD” value was 2.45, the OD1 turned out to be 2.48, the OD2 is listed as 2.45 and the OD3 is recorded as 2.42.
As to `N[C@@H](CC(=O)N1CCn2c(nnc2C(F)(F)F)C1)Cc1cc(F)c(F)cc1F` [Sitagliptin, sitagliptin], on VEGFR-2 (dose-response curve fit), the “VEGFR-2 enzyme inhibition LogIC50 (Fig. 3)” value turned out to be 2.016. For the same compound, the IC50 on VEGFR-2 (setting [6]) was 104000 nM; in the experiment on MCF-10A cells, 37.6 ± 1.9 µM; in the experiment on MCF-7 cells (setting [2]) it was 183 µM; with MCF-7 cells (read-out: MCF-7 IC50 ± SD, MCF-7, five dose concentrations, MTT, n = 3, listed as SIT) it was 183 ± 3.1 µM. For the same compound, the viability at 100 µg/mL with MCF-7 cells (setting [1]) is 64.6%; in the experiment with MCF-7 cells (setting [3]) it was 65.7%; with MCF-7 cells (setting [4]), 64.4%; with MCF-7 cells (setting [5]) it was 63.8%. In the experiment with MCF-7 cells, the “Average OD” value stood at 2.08. This compound also came in with an OD1 with MCF-7 cells of 2.12. This compound came in with an OD2 in the experiment with MCF-7 cells of 2.08. The OD3 in the experiment with MCF-7 cells is 2.06.
As for `CCS(=O)(=O)CCn1c([N+](=O)[O-])cnc1C` [Tinidazole, tinidazole], the IC50 on VEGFR-2 (dose-response curve fit, unit inferred, read-out: VEGFR-2 enzyme inhibition IC50 (Fig. 3)) was determined as 81900 nM; on VEGFR-2 (enzyme inhibition, unit printed as nM in text, read-out: VEGFR-2 inhibition IC50), 81900 nM; in the experiment on MCF-10A cells it was 51.5 ± 1.8 µM; with MCF-7 cells (setting [2]), 301 µM; in the experiment on MCF-7 cells (read-out: MCF-7 IC50 ± SD, MCF-7, five dose concentrations, MTT, n = 3, listed as TNZ) it was 301 ± 7.6 µM. Also, at VEGFR-2 (dose-response curve fit), the “VEGFR-2 enzyme inhibition LogIC50 (Fig. 3)” value came out at 1.913. The viability at 100 µg/mL in the experiment with MCF-7 cells (setting [1]) came out at 67.5%; in the experiment with MCF-7 cells (setting [3]), 68.2%; with MCF-7 cells (setting [4]), 66.2%; in the experiment with MCF-7 cells (setting [5]) it was 68%. For the same compound, the “Average OD” value in the experiment with MCF-7 cells stood at 2.16. The same compound returned an OD1 in the experiment with MCF-7 cells of 2.20. The OD2 in the experiment with MCF-7 cells is 2.14. For the same compound, the OD3 with MCF-7 cells was determined as 2.19.

These data come from PMC12699035, “Exploring market-approved azoles as potential breast cancer therapeutics targeting the VEGFR-2 biotarget” (Scientific Reports, 2025).
